From paper PMC12356538, “Targeting the SARS-CoV‑2 RNA Translation Initiation Element SL1 by Molecules of Low Molecular Weight” (Journal of the American Chemical Society, 2025)
Where “and” joins values, the source holds several entries; their conditions need not be identical. Identical values can stand only once. Entries after “also recorded” stand apart in the source; their conditions may differ. Like-named read-outs stand apart in the source and are kept apart here.

Columns and labels:
[1] = system: SARS-CoV-2 SL1 RNA (SL1 wt); assay type: binding; details: for wLOGSY factor / T2 reduction [%] / CSP [Hz]: 10 μM SL1 wt, 200 μM ligand; for wLOGSY factor / T2 reduction [%]: pH 6.2; for T2 reduction [%]: CPMG 100 vs 5 ms; for Rank: FBS ranking from summed ranks of CSP, wLOGSY and T2 results; for Rank / Normalized FBS score / 1 - normalized FBS score / FBS score: SL1 wt; for 1 - normalized FBS score: 0 lowest, 1 highest score; for FBS score: radar chart values; for CSP [Hz]: ligand 1H CSP, [RNA]:[ligand] 1:20, pH 6.2
SL1 Δbulge RNA = assay type: binding, SARS-CoV-2
SL1 wt RNA = experiment: NMR-based KD estimation, ligand-detected 1D-1H titration; assay type: binding, SARS-CoV-2
SL1 RNA = experiment: RNA-detected NMR binding site mapping (2D-1H,1H-TOCSY and 1D-1H); parameters: species or system SARS-CoV-2; details: for 1H CSPs [ppm] A12H2 / 1H CSPs [ppm] A29H2: RNA-detected 1D-1H
[2] = system: SL1 (wt)-Nanoluciferase mRNA; assay type: biochemical, SARS-CoV-2
[3] = system: SL1 Δbulge-Nanoluciferase mRNA; assay type: biochemical, SARS-CoV-2
[4] = system: β-Globin-Nanoluciferase mRNA; experiment: Cell-free translation assay in rabbit reticulocyte lysate, Nanoluciferase readout; assay type: biochemical; details: 0.2 μM mRNA, 2 μM compound
[5] = system: SL1 RNA labeled with 2AP at position A27; experiment: 2-Aminopurine fluorescence binding assay; parameters: species or system SARS-CoV-2; details: 0.5 μM 2AP-SL1, compound 0-400 μM, 25 °C, pH 6.2
[6] = pH 6.2
[7] = Suppl. Table 7, ligand constant at 100, SL1 wt RNA concentration 0-250, read-out: KDest
[8] = 2D TOCSY, RNA 150 μM, compound 1 mM, 298 K

Structure (SMILES) | wLOGSY factor [1] | T2 reduction [%] [1] | Rank [1] | Normalized FBS score [1] | 1 - normalized FBS score [1] | FBS score [1] | CSP [Hz] [1] | Kd (SL1 wt RNA; [7]) | 1H,1H CSPs [ppm] C16H5-H6 (SL1 RNA; [8]) | 1H,1H CSPs [ppm] C19H5-H6 (SL1 RNA; [8]) | 1H,1H CSPs [ppm] C20H5-H6 (SL1 RNA; [8]) | 1H,1H CSPs [ppm] C21H5-H6 (SL1 RNA; [8]) | 1H,1H CSPs [ppm] C28H5-H6 (SL1 RNA; [8]) | 1H,1H CSPs [ppm] C33H5-H6 (SL1 RNA; [8]) | 1H,1H CSPs [ppm] C34H5-H6 (SL1 RNA; [8]) | 1H,1H CSPs [ppm] U9H5-H6 (SL1 RNA; [8]) | 1H,1H CSPs [ppm] U10H5-H6 (SL1 RNA; [8]) | 1H,1H CSPs [ppm] U11H5-H6 (SL1 RNA; [8]) | 1H,1H CSPs [ppm] U13H5-H6 (SL1 RNA; [8]) | 1H,1H CSPs [ppm] U17H5-H6 (SL1 RNA; [8]) | other results
COc1ccc2nc(NC(=O)CN(C)C)sc2c1 [A.2] | 0.72 | 79.26% | 30 | 0.81 | 0.19 | 30 | 12.23 Hz | 144 µM | 0.0166 ppm | 0.0190 ppm | 0.0143 ppm | 0.0230 ppm | 0.0813 ppm | 0.0085 ppm | 0.0081 ppm | 0.0247 ppm | 0.0231 ppm | 0.0462 ppm | 0.0110 ppm | 0.0143 ppm | CSP [Hz] (SL1 Δbulge RNA): 5.52 Hz; Normalized abs. CSP SL1 wt - CSP SL1 Δbulge (normalized selectivity score) (SL1 Δbulge RNA): 1.00; Rank (SL1 Δbulge RNA): 5; T2 reduction [%] (SL1 Δbulge RNA): 67.46%; abs. CSP SL1 wt - CSP SL1 Δbulge (SL1 Δbulge RNA): 6.71; wLOGSY factor (SL1 Δbulge RNA): 0.00; Kd (SL1 wt RNA; ligand 100 μM, SL1 RNA 0 to 200 or 250 μM, 298 K, 600 MHz, pH 6.2, read-out: KD est): 144 ± 31 µM; binding site / selectivity for the bulge from CSP and LB mapping, in words (SL1 RNA): bound the bulge less selectively; 1H,1H CSPs [ppm] U18H5-H6 (SL1 RNA; [8]): 0.0071 ppm; 1H,1H CSPs [ppm] U25H5-H6 (SL1 RNA; [8]): 0.0361 ppm; 1H CSPs [ppm] A12H2 (SL1 RNA): 0.1420 ppm; 1H CSPs [ppm] A29H2 (SL1 RNA): 0.0190 ppm; Normalized inhibition rate (normalized activity score) [2]: 0.73; SL1 wt inhibition rate [%] [2]: 36.23%; effect on translation of SL1 wt mRNA, in words [2]: significant and selective inhibition; also recorded: highest inhibition efficiency; time-resolved SL1-driven translation, in words [2]: more subtle temporal effects; effect on translation of SL1 Δbulge mRNA, in words [3]: increased translation efficiency; also recorded: about half as pronounced as that for SL1 wt; effect on translation of β-globin mRNA, in words [4]: increased translation efficiency; also recorded: boost; affinity trend compared to lead A [5]: increased affinity; solubility, in words [6]: increased solubility
CNC(=O)Nc1nc2c(O)cc(O)cc2s1 [A.13] | 0.33 | 100.00% | 25 | 0.68 | 0.32 | 25 | 4.11 Hz | 312 µM | 0.0032 ppm | 0.0022 ppm | 0.0022 ppm | 0.0045 ppm | 0.0278 ppm | 0.0032 ppm | 0.0087 ppm | 0.0067 ppm | 0.0112 ppm | 0.0702 ppm | 0.0209 ppm | 0.0051 ppm | FBS result (CSP, wLOGSY, T2 reduction) in words (SL1 Δbulge RNA): severe line broadening; signal disappearance; also recorded: complete loss of ligand peaks; 1H,1H CSPs [ppm] C15H5-H6 (SL1 RNA; [8]): 0.0030 ppm; 1H,1H CSPs [ppm] C32H5-H6 (SL1 RNA; [8]): 0.0082 ppm; 1H,1H CSPs [ppm] U18H5-H6 (SL1 RNA; [8]): 0.0022 ppm; 1H,1H CSPs [ppm] U25H5-H6 (SL1 RNA; [8]): 0.0020 ppm; 1H CSPs [ppm] A12H2 (SL1 RNA): 0.0630 ppm; 1H CSPs [ppm] A29H2 (SL1 RNA): 0.0190 ppm; Normalized inhibition rate (normalized activity score) [2]: 1.00; SL1 wt inhibition rate [%] [2]: 49.50% and ~50%; effect on translation of SL1 wt mRNA, in words [2]: significant and selective inhibition; also recorded: highest inhibition efficiency; also recorded: greatest translation inhibition; time-resolved SL1-driven translation, in words [2]: most pronounced delay and suppression; inhibition rate [3]: ~0.5%; inhibition rate ([4]; relative to untreated control): ~10%; affinity trend compared to lead A [5]: increased affinity
